Experimental data taken from patent US20070149481A1, “N,n-bridged, nitrogen-substituted carbacyclic indolocarbazoles as protein kinase inhibitors” (priority 2002, published 2007).

Key:
Format in all cases: biochemical
Conditions in all cases: 10 μM compound
His tagged ERK2 = His tagged ERK2 (Homo sapiens, UniProt P28482); test: Extracellular signal Regulated Kinase 2 inhibition assay (ERK2), radioactive filtermat format
Protocol: (§1) The ERK2 kinase activity assay utilizes a radioactivity-based format in a 96-well PCR plate with radioactive readout. The ERK2 activity was assayed in a 25 μL assay mixture containing 25 mM HEPES (pH 7.0), 250 μM ATP, 1 mM MgCl2, 1 mM DTT, 2% DMSO, 150 ng/mL Myelin Basic Protein (MBP, Sigma M-1891), and 13.6 ng/mL His tagged ERK2 (specific activity=38.1 nmol/min*mg). Compounds were screened for inhibition of the ERK2 kinase activity at a concentration of 10 μM. The kinase reaction was allowed to proceed at 37° C. for 30 minutes, then reaction was stopped by the addition of 5 μl of 0.5M EDTA (pH 8). 15 μL of each solution were then spotted onto the corresponding square of a filtermat (8×12 glassfibre mat 90×120 mm, PE-Wallac 1450-421). The filtermat was allowed to dry and washed once with 10% TCA, 2% PPA, 500 mM NaCl each for 30 minutes at rt. Two further washings in 10% TCA and 2% PPA for 30 minutes were performed, then a final 30 minute wash in 99% EtOH at rt was done and the filtermat was air dried. The dry filtermat was then placed in a sample bag with a Meltilex sheet (Melt-on scintillator sheets 73×109 mm, PE-Wallac 1450-441 for filtermat A) over the filtermat. The bag was trimmed to fit into the microplate heatsealer (PE-Wallac 1495-021). The heatsealer is used to melt the Meltilex on the filtermat. The bag containing the filtermat and the melted Meltilex was then placed into a filter cassette and counted using the Microbeta Jet Scintillation and Luminescence Counter PE-Wallac 1450.

GSK3β = biological target: T1, GSK3β (Homo sapiens, UniProt P49841); test: Glycogen Synthase Kinase 3β inhibition assay (GSK3β)
T1 construct: purchased Upstate Discovery
Protocol: The GSK3β kinase activity assay utilizes a radioactivity-based format in a 96-well PCR plate with radioactive readout. The GSK3 β activity was assayed in a 25 μL assay mixture containing 8 mM HEPES (pH 7.0), 250 μM ATP, 0.2 mM EDTA (pH 8), 2% DMSO, 250 ng/mL Myelin Basic Protein (MBP, Sigma M-1891), and 12 ng/mL GSK3β (Upstate Discovery, specific activity=607 nmol/min*GS2 peptide, concentration of 6.05 mg/mL). Compounds were screened for inhibition of the GSK3β kinase activity at a concentration of 10 μM. The kinase reaction was allowed to proceed at 37° C. for 30 minutes, then the reaction was stopped by addition of 5 μL of 0.5M EDTA (pH 8).

PKC (rat brain) = test: Protein Kinase C inhibition assay (PKC)
Protocol: as §1
The PKC kinase activity assay utilizes a radioactivity-based format in a 96-well PCR plate with radioactive readout. The PKC activity was assayed in a 25 μL assay mixture containing 25 mM HEPES (pH 7.0), 250 μM ATP, 10 mM MgCl2, 1 mM DTT, 1 mM EDTA (pH 8), 2 mM CaCl2, 2% DMSO, 250 ng/mL Histone H1 (Roche 1 004 875), and 165 ng/mL PKC (rat brain, Calbiochem 539494, specific activity=1600 nmol/min*mg). Compounds were screened for inhibition of the PKC kinase activity at a concentration of 10 μM. The kinase reaction was allowed to proceed at 37° C. for 30 minutes, then the reaction was stopped by addition of 5 μL of 0.5M EDTA (pH 8). The remainder of the protocol is identical to the one reported for ERK2.

[1] = biological target: T2, PKA (catalytic subunit, bovine heart) (Bos taurus, UniProt P00517); test: Protein Kinase A inhibition assay (PKA)
T2 construct: PKA (catalytic subunit, bovine heart, Calbiochem 539486); purchased Calbiochem 539486; host or cells: bovine heart (tissue-derived)
Protocol: as §1
The PKA kinase activity assay utilizes a radioactivity-based format in a 96-well PCR plate with radioactive readout. The PKA activity was assayed in a 25 μL assay mixture containing 25 mM HEPES (pH 7.0), 250 μM ATP, 10 mM MgCl2, 1 mM DTT, 1 mM EDTA (pH 8). 2% DMSO. 250 ng/mL Histone H2B (Roche 223 514), and 2 ng/mL PKA (catalytic subunit, bovine heart, Calbiochem 539486, specific activity=1170 pmol/min*μg). Compounds were screened for inhibition of the PKA kinase activity at a concentration of 10 μM. The kinase reaction was allowed to proceed at 37° C. for 30 minutes, then the reaction was stopped by addition of 5 μL of 0.5M EDTA (pH 8). The remainder of the protocol is identical to the one reported for ERK2.

T1 sequence (P49841 whole entry, species assumed): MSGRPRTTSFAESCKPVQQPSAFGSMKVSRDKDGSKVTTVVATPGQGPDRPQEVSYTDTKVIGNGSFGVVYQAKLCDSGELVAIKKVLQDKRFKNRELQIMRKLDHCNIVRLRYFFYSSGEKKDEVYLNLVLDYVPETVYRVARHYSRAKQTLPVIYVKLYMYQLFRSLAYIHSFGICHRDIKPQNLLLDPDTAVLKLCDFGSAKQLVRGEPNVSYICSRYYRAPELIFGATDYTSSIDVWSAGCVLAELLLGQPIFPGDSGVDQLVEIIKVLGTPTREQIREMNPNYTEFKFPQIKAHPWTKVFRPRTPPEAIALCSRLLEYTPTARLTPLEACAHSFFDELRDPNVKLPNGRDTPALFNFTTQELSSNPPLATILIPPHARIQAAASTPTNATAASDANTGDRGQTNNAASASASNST
Sequence of His tagged ERK2 (P28482 whole entry): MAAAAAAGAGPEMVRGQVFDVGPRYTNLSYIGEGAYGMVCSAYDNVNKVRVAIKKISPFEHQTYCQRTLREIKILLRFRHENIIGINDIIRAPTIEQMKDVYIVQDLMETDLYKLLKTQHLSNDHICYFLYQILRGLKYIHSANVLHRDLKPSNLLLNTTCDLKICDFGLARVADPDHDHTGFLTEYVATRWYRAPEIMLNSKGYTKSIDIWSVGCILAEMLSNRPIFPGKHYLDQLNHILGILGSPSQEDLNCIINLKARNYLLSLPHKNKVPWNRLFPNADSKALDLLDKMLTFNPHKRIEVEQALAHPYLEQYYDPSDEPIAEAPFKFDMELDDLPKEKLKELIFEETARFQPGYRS

inhibition at 10 µM (His tagged ERK2): 92.3%
inhibition at 10 µM (GSK3β): 100%
% Inhibition PKC (PKC (rat brain)): 91.62%
inhibition at 10 µM [1]: 96.8%
Structure (SMILES): NC(=O)[C@]1(N)CC2CC1n1c3ccccc3c3c4c(c5c6ccccc6n2c5c31)C(=O)NC4=O (mixture of isomers) [Compound 5]
